Laboratory results as given in ChEMBL document CHEMBL3813632, “Thiazolo[3,2-a]benzimidazol-3(2H)-one derivatives: Structure-activity relationships of selective nucleotide pyrophosphatase/phosphodiesterase1 (NPP1) inhibitors” (Bioorg Med Chem, 2016).
Active and inactive are the calls of the source. No cut-off for these calls is given here.

Key:
[1] = molecular target: Autotaxin (Homo sapiens) (UniProt Q13822); assay: Inhibition of human recombinant NPP2 expressed in insect SF9 cells using 1-oleoylsn-glycero-3-phosphocholine as substrate at >100 uM preincubated with substrate followed by protein addition and subsequent incubation for 60 mins by colorimetric analysis
[2] = molecular target: T1, Ectonucleoside triphosphate diphosphohydrolase 1 (Homo sapiens) (UniProt P49961); assay: Inhibition of human recombinant soluble NTPDase1 expressed in CHO cells using ATP as substrate at 10 to 1000 uM preincubated with substrate followed by protein addition and subsequent incubation for 30 mins by capillary electrophoresis
T1 sequence (whole entry): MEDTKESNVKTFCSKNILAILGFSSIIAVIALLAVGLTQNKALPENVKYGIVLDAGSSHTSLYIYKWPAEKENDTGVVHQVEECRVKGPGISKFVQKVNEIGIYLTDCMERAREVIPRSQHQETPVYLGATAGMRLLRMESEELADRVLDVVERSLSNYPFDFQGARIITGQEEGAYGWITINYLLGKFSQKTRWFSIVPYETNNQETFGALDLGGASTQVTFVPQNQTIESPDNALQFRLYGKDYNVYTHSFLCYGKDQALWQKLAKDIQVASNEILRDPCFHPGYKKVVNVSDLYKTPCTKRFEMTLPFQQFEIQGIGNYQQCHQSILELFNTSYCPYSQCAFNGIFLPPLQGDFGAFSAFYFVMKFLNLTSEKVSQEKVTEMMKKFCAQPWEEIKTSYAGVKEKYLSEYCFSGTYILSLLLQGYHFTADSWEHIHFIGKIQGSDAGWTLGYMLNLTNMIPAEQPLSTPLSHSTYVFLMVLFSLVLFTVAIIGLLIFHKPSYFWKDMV

[3] = species: Homo sapiens; assay: Selectivity ratio of Ki for human recombinant Ecto-5'-nucleotidase to Ki for human recombinant NPP1
[4] = Chemical stability of the compound assessed as compound remaining at pH 9 at 37 degC after 8 hrs by HPLC-MS analysis; type: physicochemical; conditions: buffer, read-out: Stability
[5] = species: Homo sapiens; assay: Selectivity ratio of Ki for human recombinant soluble NTPDase3 to Ki for human recombinant NPP1
[6] = molecular target: T2, Ectonucleoside triphosphate diphosphohydrolase 2 (Homo sapiens) (UniProt Q9Y5L3); assay: Inhibition of human recombinant NTPDase2 expressed in CHO cells using ATP as substrate at 10 to 1000 uM preincubated with substrate followed by protein addition and subsequent incubation for 30 mins by capillary electrophoresis
T2 sequence (whole entry): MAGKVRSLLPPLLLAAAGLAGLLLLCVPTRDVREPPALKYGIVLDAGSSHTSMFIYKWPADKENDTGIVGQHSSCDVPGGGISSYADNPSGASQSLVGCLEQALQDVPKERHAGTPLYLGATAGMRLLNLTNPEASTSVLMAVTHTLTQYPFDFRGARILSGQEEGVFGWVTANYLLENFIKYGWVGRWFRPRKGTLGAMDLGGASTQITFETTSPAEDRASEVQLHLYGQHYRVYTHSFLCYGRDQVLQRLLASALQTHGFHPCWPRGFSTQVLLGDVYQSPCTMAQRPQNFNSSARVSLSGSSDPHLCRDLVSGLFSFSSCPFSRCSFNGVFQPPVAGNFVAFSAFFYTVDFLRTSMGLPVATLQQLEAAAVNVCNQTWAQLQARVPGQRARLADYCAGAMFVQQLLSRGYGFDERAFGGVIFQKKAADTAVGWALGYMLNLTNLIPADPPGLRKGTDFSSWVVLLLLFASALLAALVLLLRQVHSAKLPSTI

[7] = Chemical stability of the compound assessed as compound remaining at pH 7.4 at 25 to 37 degC after 8 to 24 hrs by HPLC-MS analysis; type: physicochemical; conditions: buffer
[8] = species: Homo sapiens; assay: Selectivity ratio of Ki for human recombinant soluble NTPDase1 to Ki for human recombinant NPP1
[9] = molecular target: T3, Ectonucleotide pyrophosphatase/phosphodiesterase family member 1 (Homo sapiens, UniProt P22413); assay: Inhibition of human recombinant NPP1 expressed in insect SF9 cells using ATP as substrate preincubated with substrate followed by protein addition and subsequent incubation for 30 mins by capillary electrophoresis
T3 sequence (P22413 whole entry): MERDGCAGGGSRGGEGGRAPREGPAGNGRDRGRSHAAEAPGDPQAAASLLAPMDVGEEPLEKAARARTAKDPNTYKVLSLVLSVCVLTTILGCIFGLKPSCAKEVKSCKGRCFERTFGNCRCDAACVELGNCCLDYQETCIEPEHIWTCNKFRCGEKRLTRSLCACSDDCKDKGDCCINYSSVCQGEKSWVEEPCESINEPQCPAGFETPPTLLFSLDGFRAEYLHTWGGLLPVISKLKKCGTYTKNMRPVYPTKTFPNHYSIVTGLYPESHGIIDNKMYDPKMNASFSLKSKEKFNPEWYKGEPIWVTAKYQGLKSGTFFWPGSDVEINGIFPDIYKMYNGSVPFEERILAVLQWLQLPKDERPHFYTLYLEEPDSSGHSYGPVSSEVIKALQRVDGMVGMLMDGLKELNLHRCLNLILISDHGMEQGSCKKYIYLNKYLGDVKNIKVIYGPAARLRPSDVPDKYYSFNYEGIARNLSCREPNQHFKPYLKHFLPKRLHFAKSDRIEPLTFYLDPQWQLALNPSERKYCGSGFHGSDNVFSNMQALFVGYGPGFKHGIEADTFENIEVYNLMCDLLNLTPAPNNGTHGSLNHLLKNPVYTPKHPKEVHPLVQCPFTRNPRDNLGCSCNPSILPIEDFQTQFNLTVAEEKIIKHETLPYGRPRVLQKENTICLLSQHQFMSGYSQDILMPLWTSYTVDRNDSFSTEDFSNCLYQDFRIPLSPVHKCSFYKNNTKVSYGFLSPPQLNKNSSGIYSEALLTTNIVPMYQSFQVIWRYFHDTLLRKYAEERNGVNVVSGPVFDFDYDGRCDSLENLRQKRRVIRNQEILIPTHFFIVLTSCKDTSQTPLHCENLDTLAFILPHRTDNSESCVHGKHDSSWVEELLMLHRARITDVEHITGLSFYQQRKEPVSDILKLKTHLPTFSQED

[10] = species: Homo sapiens; assay: Selectivity ratio of Ki for human recombinant NPP3 to Ki for human recombinant NPP1

O=c1/c(=C/c2ccc(I)o2)sc2nc3ccccc3n12
inhibition [1]: Active | inhibition [2]: inactive | Ratio Ki [3]: 1000 | remaining at 8 h [4]: 70.5% | Ratio Ki [5]: 1000 | inhibition [6]: inactive | Stability [7]: Stable | Ratio Ki [8]: 1000 | Ki [9]: 467 nM | Ratio Ki [10]: 1000
